# According to US20020148006A1, “Transgenic plants with modified sterol compositions” (Asgrow Seed Company, L.L.C., priority 1996, published 2002):
# Entries after “also recorded” stand apart in the source; their conditions may differ.
# Columns and labels:
# Heliothis zea = assay: Sterol utilization and metabolism by Heliothis zea reared on artificial diet with sterol supplement; conditions: for Instar reached by day 20 / Growth response: sterol 200 ppm in diet; for Growth response: 20-day larvae, relative to growth on cholesterol normalized to 100%; for Utilization by H. zea / support of larval growth and development (words): test sterol as sole added dietary sterol
# Procedure: Heliothis zea (corn earworm) was reared on an artificial diet treated with different sterol supplements to study the relation between sterol structure and utilization in insects. H. zea eggs were used to establish a disease-free stock colony.
# The stock insects were reared using sterile procedures on a pinto bean-based diet. Moths were fed 10% sucrose. Cultures were maintained at 27±1° C., at 40±10% relative humidity on a 14:10 light-dark photoperiod and an artificial diet was used to rear the insects on different sterol supplements. The experimental diet contained agar, which is known to contain trace contamination of cholesterol, otherwise the experimental diet was sterol-free.
# Sterols were solubilized in acetone. Aliquots of the solutions were added to the sterol-free diet in a mortar, the material mixed thoroughly with the diet, and the organic solvent allowed to evaporate. Sterols were supplied to the medium at 200 ppm (equivalent to 1 mg of sterol per experimental vessel containing one insect).
# By day 20, H. zea larva are in the final stage of larval development (sixth instar), after which the insects may pupate. A single neonate larva was placed in an experimental culture vial and allowed to grow for 20 days. The fresh weight, length and instar stage of 20-day larva were recorded.
# In some treatments, the larvae were allowed to grow for another 4 days to determine whether they could pupate properly and develop into moth forms.
# These fatty alcohols may comigrate with sterols during some forms of chromatography and interfere with sterol quantitation, particularly of cholesterol. Therefore, in order to confirm the identity and amount of cholesterol in the insect an aliquot of the NSF was injected into a HPLC column and the fraction corresponding to cholesterol was examined by GC-MS.
# [1] = test system: (S)-adenosyl-L-methionine: Δ^24-sterol methyl transferase (SMT); assay: Sterol specificity (substrate methylation) of SMT enzyme from 4-day corn seedlings; type: biochemical, Zea mays (corn); conditions: for % Activity, relative to cycloartenol methylation: soluble SMT; for Enzyme Activity: soluble SMT from corn seedlings, BG = background
# Procedure: The sterol specificity of the microsome-bound and soluble SMT enzyme from 4-day corn seedlings was determined in order to elucidate the enzymatic basis for the plant sterols identified in Example 1.
# [2] = Table 11, insect tissues, RP-HPLC and GC-MS
# [3] = substrates marked (C1), first methyl transfer
molecule,measurement,setting,value
"24-Ethyl cholesta-5,24-dienol",Instar reached by day 20,Heliothis zea; Table 11,3
same,Growth response,Heliothis zea; Table 11,10%
"24-Methyl cholesta-5,24-dienol",Sterol composition (as % total sterol): cholesterol,Heliothis zea; [2],35%
same,Sterol composition (as % total sterol): ts,Heliothis zea; [2],65%
same,Instar reached by day 20,Heliothis zea; Table 11,3
same,Growth response,Heliothis zea; Table 11,5%
"24-methyl cholesta-5,23-dienol [24-Methylcholesta-5,23-dienol]",Sterol composition (as % total sterol): cholesterol,Heliothis zea; [2],20%
same,Sterol composition (as % total sterol): ts,Heliothis zea; [2],80%
same,Instar reached by day 20,Heliothis zea; Table 11,5
same,Growth response,Heliothis zea; Table 11,50%
same,Utilization by H. zea / support of larval growth and development (words),Heliothis zea,"non-utilizable; also recorded: #deformities. Insects in the nonutilizable category generally weighed less than 100 mg per insect and their length ranged from 2 to 15 mm, with 6 to 12 insects alive at day 20"
"24-methyl cholesta-5,25(27)-dienol",Utilization by H. zea / support of larval growth and development (words),Heliothis zea,non-utilizable
CC(C)=CCC[C@@H](C)[C@H]1CC[C@H]2C3=C(CC[C@]12C)[C@@]1(C)CCCCC1CC3 (some centres unmarked) [3-Desoxyzymosterol],"% Activity, relative to cycloartenol methylation","[1]; (C1), first methyl transfer",0 (C1) %
"C=C(CC[C@@H](C)[C@H]1CC[C@H]2C3=C(CC[C@]12C)[C@@]1(C)CC[C@H](O)[C@@H](C)C1CC3)C(C)C (stereo partly drawn) [4α-Methylergosta-8,24(28)-dienol]",Enzyme Activity,"[1]; substrates marked (C2), second methyl transfer","1,500 dpm/min"
same,"% Activity, relative to cycloartenol methylation","[1]; (C2), second methyl transfer",4 (C2) %
CC(C)=CCC[C@@H](C)[C@H]1CC[C@H]2C3=C(CC[C@]12C)[C@@]1(C)CC[C@H](O)[C@@H](C)[C@@H]1CC3 [4α-Methylzymosterol],Enzyme Activity,[1]; [3],"10,504 dpm/min"
same,"% Activity, relative to cycloartenol methylation","[1]; (C1), first methyl transfer",28 (C1) %
CC(C)=CCCC(C)C1CC[C@@]2(C)C3=C(CCC12C)C1(C)CCC(O)CC1CC3 (stereo partly drawn) [14α-Methylzymosterol],Enzyme Activity,[1]; [3],"3,376 dpm/min"
same,"% Activity, relative to cycloartenol methylation","[1]; (C1), first methyl transfer",9 (C1) %
"C=C(CC[C@@H](C)[C@H]1CC[C@H]2[C@@H]3CC=C4CC(O)CC[C@]4(C)[C@H]3CC[C@]12C)C(C)C (some centres unmarked) [24(28)-Methylenecholesterol, 24(28)-methylenecholesterol]",Instar reached by day 20,Heliothis zea; Table 11,6
same,Growth response,Heliothis zea; Table 11,100%
same,Sterol composition (as % total sterol): cholesterol,Heliothis zea; in vivo,84%
same,Sterol composition (as % total sterol): ts,Heliothis zea; in vivo,16%
same,Total sterol µg/insect,Heliothis zea; in vivo,59 µg/insect
same,Utilization by H. zea / support of larval growth and development (words),Heliothis zea,supported larval growth to late-sixth instar
CC(C)=CCC[C@@H](C)[C@H]1CC[C@@]2(C)[C@@H]3CC[C@H]4C[C@@H](O)CC[C@@]45C[C@@]35CC[C@]12C [24-Dehydropollinstanol],Enzyme Activity,[1]; [3],"8,253 dpm/min"
same,"% Activity, relative to cycloartenol methylation","[1]; (C1), first methyl transfer",22 (C1) %
same,Instar reached by day 20,Heliothis zea; Table 11,3
same,Growth response,Heliothis zea; Table 11,5%
same,Sterol composition (as % total sterol): cholesterol,Heliothis zea; in vivo,14%
same,Sterol composition (as % total sterol): ts,Heliothis zea; in vivo,86%
same,Total sterol µg/insect,Heliothis zea; in vivo,0.6 µg/insect
CC(C)CCC[C@@H](C)[C@H]1CC[C@@]2(C)C3=C(CC[C@]12C)[C@@]1(C)CC[C@H](O)C(C)(C)[C@@H]1CC3 [24-Dihydrolanosterol],Instar reached by day 20,Heliothis zea; Table 11,3
same,Growth response,Heliothis zea; Table 11,5%
"CCC(=CC[C@@H](C)[C@H]1CC[C@H]2[C@@H]3CC=C4CC(O)CC[C@]4(C)[C@H]3CC[C@]12C)C(C)C (some centres unmarked) [24-Ethyl cholesta-5,23-dienol]",Sterol composition (as % total sterol): cholesterol,Heliothis zea; [2],14%
same,Sterol composition (as % total sterol): ts,Heliothis zea; [2],86%
same,Instar reached by day 20,Heliothis zea; Table 11,3
same,Growth response,Heliothis zea; Table 11,20%
CC(C)=CCC[C@@H](C)[C@H]1CC[C@@]2(C)[C@@H]3CC[C@H]4[C@H](C)[C@@H](O)CC[C@@]45C[C@@]35CC[C@]12C [31-Norcycloartenol],Enzyme Activity,[1]; [3],"18,757 dpm/min"
same,"% Activity, relative to cycloartenol methylation","[1]; (C1), first methyl transfer",50 (C1) %
CC(C)CCC[C@@H](C)[C@H]1CC[C@H]2C3=C(CC[C@]12C)[C@@]1(C)CCC(O)CC1CC3 (some centres unmarked) [Cholest-8-enol],"% Activity, relative to cycloartenol methylation","[1]; (C1), first methyl transfer",0 (C1) %
same,Instar reached by day 20,Heliothis zea; Table 11,3
same,Growth response,Heliothis zea; Table 11,5%
same,Utilization by H. zea / support of larval growth and development (words),Heliothis zea,inability of cholest-8-enol to support growth
C=C(C)C(CC)CCC(C)C1CCC2C3CC=C4CC(O)CCC4(C)C3CCC12C (centres unmarked) [Clereosterol],Instar reached by day 20,Heliothis zea; Table 11,3
same,Growth response,Heliothis zea; Table 11,20%
same,Sterol composition (as % total sterol): cholesterol,Heliothis zea; in vivo,20%
same,Sterol composition (as % total sterol): ts,Heliothis zea; in vivo,80%
same,Total sterol µg/insect,Heliothis zea; in vivo,3 µg/insect
CC[C@@H](CC[C@@H](C)[C@H]1CC[C@H]2[C@@H]3CC=C4C[C@@H](O)CC[C@]4(C)[C@H]3CC[C@]12C)C(C)C [Clionasterol],Instar reached by day 20,Heliothis zea; Table 11,6
same,Growth response,Heliothis zea; Table 11,100%
same,Utilization by H. zea / support of larval growth and development (words),Heliothis zea,supported larval growth to late-sixth instar
C=C(CC[C@@H](C)[C@H]1CC[C@@]2(C)[C@@H]3CC[C@H]4[C@H](C)[C@@H](O)CC[C@@]45C[C@@]35CC[C@]12C)C(C)C [Cycloeucalenol],"% Activity, relative to cycloartenol methylation","[1]; (C2), second methyl transfer",0 (C2) %
"C=C(CC[C@@H](C)[C@H]1CC[C@H]2[C@@H]3CC=C4C[C@@H](O)CC[C@]4(C)[C@H]3CC[C@]12C)C(C)C [Ergosta-5,24(28)-dienol]","% Activity, relative to cycloartenol methylation","[1]; (C2), second methyl transfer",0 (C2) %
"C=C(CC[C@@H](C)[C@H]1CC[C@H]2C3=CCC4CC(O)CC[C@]4(C)[C@H]3CC[C@]12C)C(C)C (some centres unmarked) [Ergosta-7,24(28)-dienol]","% Activity, relative to cycloartenol methylation","[1]; (C2), second methyl transfer",0 (C2) %
"C=C(CC[C@@H](C)[C@H]1CC[C@H]2C3=C(CC[C@]12C)[C@@]1(C)CC[C@H](O)CC1CC3)C(C)C (some centres unmarked) [Ergosta-8,24(28)-dienol]","% Activity, relative to cycloartenol methylation","[1]; (C2), second methyl transfer",0 (C2) %
C/C=C(\CC[C@@H](C)[C@H]1CC[C@H]2[C@@H]3CC=C4C[C@@H](O)CC[C@]4(C)[C@H]3CC[C@]12C)C(C)C [Fucosterol],Sterol composition (as % total sterol): ts,Heliothis zea; [2],10%
same,Instar reached by day 20,Heliothis zea; Table 11,6
same,Growth response,Heliothis zea; Table 11,100%
same,Utilization by H. zea / support of larval growth and development (words),Heliothis zea,supported larval growth to late-sixth instar
C/C=C(/CCC(C)C1CCC2C3CC=C4CC(O)CCC4(C)C3CCC12C)C(C)C (centres unmarked) [Isofucosterol],Sterol composition (as % total sterol): ts,Heliothis zea; [2],8%
same,Instar reached by day 20,Heliothis zea; Table 11,6
same,Growth response,Heliothis zea; Table 11,100%
same,Utilization by H. zea / support of larval growth and development (words),Heliothis zea,supported larval growth to late-sixth instar
CC(C)=CCC[C@@H](C)[C@H]1CC[C@@]2(C)C3=C(CC[C@]12C)[C@@]1(C)CC[C@H](O)C(C)(C)[C@@H]1CC3 [Lanosterol],Enzyme Activity,[1]; [3],"24,384 dpm/min"
same,"% Activity, relative to cycloartenol methylation","[1]; (C1), first methyl transfer",65 (C1) %
same,Instar reached by day 20,Heliothis zea; Table 11,3
same,Growth response,Heliothis zea; Table 11,5%
same,Utilization by H. zea / support of larval growth and development (words),Heliothis zea,could not be met satisfactorily
C=C(CC[C@@H](C)[C@H]1CC[C@@]2(C)C3=C(CC[C@]12C)[C@@]1(C)CC[C@H](O)[C@@H](C)[C@@H]1CC3)C(C)C [Obtusifoliol],"% Activity, relative to cycloartenol methylation","[1]; (C2), second methyl transfer",0 (C2) %
CC(C)=CCC[C@@H](C)[C@H]1CC[C@@]2(C)[C@@H]3CC[C@H]4C(C)(C)[C@@H](O)CC[C@]4(C)C3=CC[C@]12C [Parkeol],Enzyme Activity,[1]; [3],"6,002 dpm/min"
same,"% Activity, relative to cycloartenol methylation","[1]; (C1), first methyl transfer",16 (C1) %
"CCC(/C=C/C(C)C1CCC2C3CC=C4CC(O)CCC4(C)C3CCC12C)C(C)C (centres unmarked) [Stigmasterol, stigmasterol]",Sterol composition (as % total sterol): ts,Heliothis zea; [2],15%
same,Instar reached by day 20,Heliothis zea; Table 11,6
same,Growth response,Heliothis zea; Table 11,100%
same,Utilization by H. zea / support of larval growth and development (words),Heliothis zea,supported larval growth to late-sixth instar
(S)-adenosyl-L-methionine [coenzyme],Km,"[1]; same for the first and second methylation reactions, read-out: Km for the coenzyme",5 µM
